In general, Cmax refers to the peak of the concentration-time curve. Broadly, the AUC is the area under the concentration-time curve, a measure of exposure. What is called Vd is the apparent volume that relates the amount in the body to the concentration in plasma or blood. The term logD denotes the decadic logarithm of the distribution of all forms, ionised or not, between an organic phase and buffer at a given pH. For orientation: bioavailability means dose-corrected exposure relative to a reference, in per cent. A higher bioavailability goes with good availability.

Data set [1] in a line: clinical. The following applies: human, in vivo, po, 30 mg.
A short description of data set [2]: clinical. The following applies: human, plasma.
The species named for another data set is Rattus norvegicus. The following applies: in vivo, po, BLD = below limit of detection.
Data set [3] can be described thus: in vivo. The following applies: rat.
The nature of the next data set: physchem. The following applies: buffer, pH 7.4.
Data set [4] in a line: in vivo. As to conditions: rat, po.

For the compound `CS(=O)(=O)O.OCCn1cc(-c2cnc3nnn(Cc4ccc5ncccc5c4)c3n2)cn1`, the highest level in “clinical [1]” (Cmax at 1.2 h) was 240 ng/mL. Also, the AUC in “clinical [2]” came out at 810 ng·h/mL.

As to `N[C@@H]1CCN(c2cnc3nnn(Cc4ccc5ncccc5c4)c3n2)C1`, in the data set filed under Rattus norvegicus, the F entry is given as “BLD”. Also, the distribution volume (Vd) in the data set “in vivo [3]” was determined as 3.6 L/kg.

Turning to `c1cnc2ccc(Cn3nnc4ncc(-c5cnn(C6CCNCC6)c5)nc43)cc2c1`, the F entry in the data set filed under Rattus norvegicus is “BLD”. In the data set “in vivo [3]”, the Vd was found to be 27 L/kg.

In turn, `Nc1cnc2nnn(Cc3ccc4ncccc4c3)c2n1` returned a log distribution coefficient (logD) in the data set “physchem” of 1.23. The compound also returned a bioavailability in the data set “in vivo [4]” of 75%. Moreover, the Vd in the data set “in vivo [3]” worked out at 0.95 L/kg.

The compound `OCCn1cc(-c2cnc3nnn(Cc4ccc5ncccc5c4)c3n2)cn1` [PF-04217903] returned a logD in the data set “physchem” of 1.38. Besides, the bioavailability in “in vivo [4]” worked out at 71%. Besides, in “in vivo [3]”, the Vd turned out to be 1.6 L/kg.

These data come from ChEMBL document CHEMBL2169886 (J Med Chem, 2012).
